Data from PubChem BioAssay (NCI).
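Compound exposure: 48 hours, 5 concentrations, 96-well plates. At the TGI there is no net growth.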

Columns and labels:
Test in all cases: NCI-60 cell line screen, 48 h
[1] = system: IGROV1 ovarian
[2] = system: SNB-75 CNS
[3] = system: MDA-MB-435
[4] = system: M14 melanoma
[5] = system: COLO 205 colon
[6] = system: A549 NSCLC
[7] = system: HCC-2998 colon
[8] = system: SF-268 CNS
[9] = system: SR leukemia
[10] = system: 786-0 renal

SMILES | TGI [1] [µM] | TGI [2] [µM] | TGI [3] [µM] | TGI [4] [µM] | TGI [5] [µM] | TGI [6] [µM] | TGI [7] [µM] | TGI [8] [µM] | TGI [9] [µM] | TGI [10] [µM]
COc1c(-c2cc(C)c(Cl)c(=O)[nH]2)c(O)c(OC)c2occc12 | > 100 | > 100 | > 100 | > 100 | > 100 | > 100 | > 100 | > 100 | > 100 | > 100
Brc1ccc2c(-c3nc(-c4c[nH]c5ccccc45)cs3)c[nH]c2c1 | > 100 | > 100 | > 100 | > 100 | > 79.7 | 74.6 | > 100 | > 100 | > 82.3 | 81.1
CC1(CCCC2(C)CCNC2=O)OCCO1 (stereo not drawn) | > 10 | > 10 | > 10 | > 10 | > 10 | > 10 | > 10 | > 10 | > 10 | > 10
C=CCNC1=C2C[C@@H](C)C[C@@H](OC)C(OC(=O)CCCN(C)C)[C@H](C)/C=C(\C)[C@@H](OC(N)=O)[C@H](OC)/C=C\C=C(/C)C(=O)NC(=CC1=O)C2=O (stereo partly drawn) | 21.7 | 22.9 | 26 | 20.7 | 6.5 | 14.6 | 17.6 | 27.6 | 8.97 | 24.8
CCSSCS(C)(=O)=O |  | 72.6 | > 100 | 55.3 | 23.5 | > 100 | 34.7 | > 100 | > 100 | 21.4
COc1ccc2c(c1)OCC1(O)Cc3ccccc3OC21 (stereo not drawn) | > 100 | > 100 | > 100 | > 100 | > 100 | > 100 | > 100 | > 100 | > 100 | > 100
CC(C)CC(=O)NC(Nc1ccc(S(=O)(=O)Nc2ncccn2)cc1)(C(F)(F)F)C(F)(F)F | > 100 | > 100 | > 100 | > 100 | > 100 | > 100 | > 100 | > 100 | > 100 | > 100
CC(=O)N1N=C(c2c(O)ccc3ccccc23)CC1C(=O)c1ccco1 (stereo not drawn) | > 100 | > 100 | > 100 | > 100 | 86 | > 100 | > 100 | > 100 | 45.3 | > 100
COCn1c(C)c(C)c2c(=O)oc(=O)[nH]c21 | > 100 | > 100 | > 100 | > 100 | > 100 | > 100 | > 100 | > 100 | > 100 | > 100
CC(=O)NC1(C)CCC(C(C)(C)NC(C)=O)CC1 (stereo not drawn) | > 100 | > 100 | > 100 | > 100 | > 100 | > 100 | > 100 | > 100 | > 100 | > 100
COc1ccc2oc(S(=O)(=O)N3CC(CCl)c4ccc([N+](=O)[O-])cc43)cc2c1 (stereo not drawn) |  | > 36.8 | 0.169 | 32.7 | 0.322 | 18.1 | 2.62 | > 39.8 | > 100 | 5.47
C1=C[C@@H]2c3ccc4cnccc4c3NC[C@@H]2C1 | > 100 | > 100 | > 100 | > 100 | > 100 | > 100 | > 100 | > 100 | > 100 | > 100
CC1(C)CCC[C@]2(C)[C@@H]1CC[C@@]13O[C@@H]1C1=C(CO)C(=O)O[C@]14O[C@@H]4[C@@H]23 | 27.3 | 30.6 | > 53.1 | 23.6 | 40.3 | 23.5 | 40.5 | 29.6 | > 100 | 29.8
CC1(C)O[C@H](C(=O)O)[C@@H](C(=O)O)O1 | > 100 | > 100 | > 100 | > 100 | > 100 | > 100 | > 100 | > 100 | > 100 | > 100
COc1cc(/C=C2\C[C@H]3[C@@H]4CC=C5C[C@@H](N6CCCC6)CC[C@]5(C)[C@H]4CC[C@]3(C)[C@H]2O)cc(OC)c1OC | 30 | 25.8 | 18.5 | 4.74 | 36.5 | 33.1 | 20.7 | 16.5 | > 100 | 10.8
CC(C)OC(=O)c1ccc(NCC2=CC(=O)C=CC2=O)cc1Cl | 30.5 | > 70.3 | 35.1 | > 100 | 21.3 | > 100 | 32.8 | 35.2 | 8.22 | > 48.3
COc1cc(Oc2nc3ccccc3nc2C(=O)O)cc(OC)c1OC | > 100 | > 100 | > 100 | > 100 | > 100 | > 100 | > 100 | > 100 | > 100 | > 100
